Laboratory results reported in EP1301480B1, “1,3-DISUBSTITUTED AND 1,3,3-TRISUBSTITUTED PYRROLIDINES AS HISTAMINE-3 RECEPTOR LIGANDS AND THEIR THERAPEUTIC APPLICATIONS” (ABBOTT LABORATORIES, priority 2000, dated 2002).

target: T1, histamine-3 receptor (Rattus norvegicus, UniProt Q9QYN8); test: Histamine-3 receptor binding: displacement of (3H)-N-α-methylhistamine from rat cortical membranes; design: species or system male Sprague-Dawley rat; details: (3H)-N-α-methylhistamine (~0.6 nM), 30 minutes at 25 °C, pH 7.7, Cheng-Prusoff equation
T1 construct: from tissue; host or cells: male Sprague-Dawley rat brain cortex membranes
T1 sequence (Q9QYN8 whole entry): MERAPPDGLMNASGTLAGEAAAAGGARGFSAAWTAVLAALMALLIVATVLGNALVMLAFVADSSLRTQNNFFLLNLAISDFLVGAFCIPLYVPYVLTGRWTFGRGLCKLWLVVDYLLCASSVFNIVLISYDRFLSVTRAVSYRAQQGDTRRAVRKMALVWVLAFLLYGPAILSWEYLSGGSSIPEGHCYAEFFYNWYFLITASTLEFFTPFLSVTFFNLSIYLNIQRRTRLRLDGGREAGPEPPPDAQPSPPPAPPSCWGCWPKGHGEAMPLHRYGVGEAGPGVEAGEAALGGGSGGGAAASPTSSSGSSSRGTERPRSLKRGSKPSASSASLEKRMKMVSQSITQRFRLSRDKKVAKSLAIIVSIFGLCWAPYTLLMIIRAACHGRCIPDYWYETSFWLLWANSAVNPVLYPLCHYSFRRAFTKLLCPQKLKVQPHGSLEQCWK
Method: Briefly, male Sprague-Dawley rat brain cortices were homogenized (1 g tissue/10 mL buffer) in 50 mM Tris-HCl/5 mM EDTA containing protease inhibitor cocktail (Calbiochem) using a polytron set at 20,500 rpm. Homogenates were centrifuged for 20 minutes at 40,000xg. The supernatant was decanted, and pellets were weighed. The pellet was resuspended by polytron homogenization in 40 mL 50 mM Tris-HCI/5 mM EDTA with protease inhibitors and centrifuged for 20 minutes at 40,000xg. […] Test compounds were dissolved in DMSO to provide a 20 mM solution, serially diluted and then added to the incubation mixtures prior to initiating the incubation assay by addition of the membranes. Thioperamide (3 µM) was used to determine nonspecific binding. Binding incubations were conducted for 30 minutes at 25 °C and terminated by addition of 2 mL of ice cold 50 mM Tris-HCl (pH 7.7) and filtration through 0.3% polyethylenimine-soaked Unifilter plates (Packard). These filters were washed 4 additional times with 2 mL of ice-cold 50 mM Tris-HCl and dried for 1 hour. Radioactivity was determined using liquid scintillation counting techniques. Results were analyzed by Hill transformation and Ki values were determined using the Cheng-Prusoff equation.

Ki | Compound
0.063 µM | N#Cc1ccc(-c2ccc(OCCCN3CCC(=O)C3)cc2)cc1 [Example 154, 4'-[3-(3-oxo-1-pyrrolidinyl)propoxy][1,1'-biphenyl]-4-carbonitrile]
0.015 µM | C[C@@]1(O)CCN(CCCOc2ccc(-c3ccc(C#N)cc3)cc2)C1 [Example 158, 4'-{3-[(3R)-3-hydroxy-3-methylpyrrolidinyl]propoxy}[1,1'-biphenyl]-4-carbonitrile]
0.593 µM | CC(C)C1(O)CCN(CCCOc2ccc(-c3ccc(C#N)cc3)cc2)C1 (centres unmarked) [Example 157]
0.105 µM | N#Cc1ccc(-c2ccc(OCCCN3CC[C@H](O)C3)cc2)cc1 [Example 155, 4'-{3-[(3S)-3-hydroxypyrrolidinyl]propoxy}[1,1'-biphenyl]-4-carbonitrile]
0.045 µM | CC1(O)CCN(CCCOc2ccc(-c3ccc(C#N)cc3)cc2)C1 (centres unmarked) [Example 156, 4'-[3-(3-hydroxy-3-methyl-1-pyrrolidinyl)propoxy][1,1'-biphenyl]-4-carbonitrile]

Continued, compound first:

Compound | Ki
CN(C)[C@@H]1CCN(CCCOc2ccc(-c3ccc(C#N)cc3)cc2)C1 [Example 108, 4'-{3-[(3R)-3-(dimethylamino)pyrrolidinyl]propoxy}[1,1'-biphenyl]-4-carbonitrile] | 0.012 µM
CC(=O)c1ccc(OCCCN2CCC(N3C(=O)NC(C(C)C)C3=O)C2)cc1 [Example 10, (5R)-3-{(3R)-1-[3-(4-acetylphenoxy)propyl]pyrrolidinyl}-5-isopropyl-2,4-imidazolidinedione] | 0.626 µM
1-(4-{3-[(3R)-3-aminopyrrolidinyl]propoxy}phenyl)-1-propanone [Example 7] | 0.031 µM
O=C(c1ccc(OCCCN2CCC(O)C2)cc1)C1CC1 (centres unmarked) [Example 151, cyclopropyl{4-[3-(3-hydroxy-1-pyrrolidinyl)propoxy]phenyl}methanone] | 0.022 µM
N-((3R)-1-{3-[4-(cyclopropylcarbonyl)phenoxy]propyl}pyrrolidinyl)-4-isopropylbenzenesulfonamide [Example 67] | 0.0029 µM
N-{(3R)-1-[3-(4-acetylphenoxy)propyl]pyrrolidinyl}-4-(trifluoromethoxy)benzenesulfonamide [Example 73] | 0.0064 µM
O=C(c1ccc(OCCCN2CC[C@@H](O)C2)cc1)C1CC1 [Example 152, cyclopropyl(4-{3-[(3R)-3-hydroxypyrrolidinyl]propoxy}phenyl)methanone] | 0.0087 µM
CC(C)(C)OC(=O)NC1CCN(CCCOc2ccc(-c3ccc(C#N)cc3)cc2)C1 (centres unmarked) [Example 98, tert-butyl 1-{3-[(4'-cyano[1,1'-biphenyl]-4-yl)oxy]propyl}-3-pyrrolidinylcarbamate] | 0.09 µM
N#Cc1ccc(-c2ccc(OCCCN3CC[C@@H](O)C3)cc2)cc1 [Example 153, 4'-{3-[(3R)-3-hydroxypyrrolidinyl]propoxy}[1,1'-biphenyl]-4-carbonitrile] | 0.042 µM
